Assay: Saturated solubility at 23° C. of each dichroic dye in certain solvents (LC quantification)
Type: physicochemical
Conditions: 24 hours agitation; for saturated solubility in ethanol: solvent ethanol; for saturated solubility in ethyl acetate: solvent ethyl acetate; for saturated solubility in isopropyl alcohol: solvent isopropyl alcohol; for saturated solubility in methanol: solvent methanol; for saturated solubility in propylene glycol 1-monomethyl ether 2-acetate: solvent propylene glycol 1-monomethyl ether 2-acetate; for saturated solubility in propylene glycol 1-monomethyl ether: solvent propylene glycol 1-monomethyl ether; for saturated solubility in tetrahydrofuran: solvent tetrahydrofuran
Experimental: [Measurement Method of Saturated Solubility]
This solution was sampled, and was dissolved together with 5 ml of a standard liquid in tetrahydrofuran to prepare a measurement solution. […] The standard liquid was prepared from 10 ml of hexylbenzene and 1000 ml of acetonitrile.
The liquid chromatograph (LC) measurement was carried out in the following condition.
Used column: KinetexC18, 2.6 μm, 100 mm×4.6 mm diameter
Column temperature: 40° C.
• (A liquid) 0.1%(v/v)—TFA/water • (B liquid) 0.1%(v/v)—TFA/acetonitrile 500/THF 50% • Gradient condition 0 min A liquid 60%, B liquid 40% • 30 min A liquid 0%, B liquid 100% • 35 min A liquid 0%, B liquid 100% • 35.1 min A liquid 60%, B liquid 40% • 45 min STOP TOTAL 45 min • Flow volume: 1.0 mL/min • Injection amount: 5 μL • Detection method: UV (254 nm)

Row | saturated solubility in ethanol | saturated solubility in ethyl acetate | saturated solubility in isopropyl alcohol | saturated solubility in methanol | saturated solubility in propylene glycol 1-monomethyl ether 2-acetate | saturated solubility in propylene glycol 1-monomethyl ether | saturated solubility in tetrahydrofuran | Compound
1 | 0.001 % by mass | 1.3 % by mass | 0.043 % by mass | 0.001 % by mass | 0.89 % by mass | 0.336 % by mass | 4.5 % by mass | CCCCc1ccc(N=Nc2ccc(N=Nc3ccc(OCCC)cc3)cc2)cc1 [dichroic dye 2]
2 | 0.003 % by mass | 0.059 % by mass | 0.002 % by mass | 0.001 % by mass | 0.077 % by mass | 0.028 % by mass | 0.33 % by mass | CCCCc1ccc(N=Nc2ccc(N=Nc3ccc(N4CCCC4)cc3)cc2)cc1 [dichroic dye 1]

Source: patent US9599759B2, “Patterned polarizing film and its production process” (Sumitomo Chemical Company, Limited, priority 2014, dated 2017)
